According to paper PMC13198932, “Pyrazolone-based ERO1 inhibitors in ERO1-driven triple-negative breast cancer and SEPN1-related myopathy: Structure–activity relationship and therapeutic potential” (Pharmacological research, 2025):
Entries after “also recorded” stand apart in the source; their conditions may differ. Read-outs that look alike come from different tables or passages of the source.

Key:
recombinant ERO1A [1] = target: T1, recombinant ERO1A (Mus musculus, UniProt Q8R180); design: method as in PMID 39962052; settings: SAR of I1–I23, Fig. 8A; cited from earlier work
T1 construct: GST-SMT3-mouse ERO1A (residues 43–464); GST-SMT3 (GST-SUMO) (N, cleaved yes); made in house; host or cells: E. coli Rosetta DE3 (Novagen)
T1 sequence (Q8R180 43-464): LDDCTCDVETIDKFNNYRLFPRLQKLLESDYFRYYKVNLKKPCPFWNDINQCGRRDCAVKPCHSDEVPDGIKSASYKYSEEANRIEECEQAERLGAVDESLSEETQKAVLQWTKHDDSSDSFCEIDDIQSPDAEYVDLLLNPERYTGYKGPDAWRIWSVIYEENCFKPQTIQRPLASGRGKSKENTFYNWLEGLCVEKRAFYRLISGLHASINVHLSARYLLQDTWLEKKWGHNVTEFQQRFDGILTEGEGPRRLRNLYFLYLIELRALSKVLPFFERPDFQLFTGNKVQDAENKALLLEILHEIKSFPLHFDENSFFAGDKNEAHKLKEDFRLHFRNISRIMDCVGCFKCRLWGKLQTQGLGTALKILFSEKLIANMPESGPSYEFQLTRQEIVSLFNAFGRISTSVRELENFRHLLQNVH

[2] = target: T2, Human monoamine oxidase A (Mao-A) (Homo sapiens, UniProt P21397); experiment: Mao-A activity assay (commercial kit, p-tyramine, H2O2 fluorimetry); format: biochemical; settings: 25 μM, 10 min incubation
T2 construct: purchased Sigma-Aldrich
T2 sequence (P21397 1-527): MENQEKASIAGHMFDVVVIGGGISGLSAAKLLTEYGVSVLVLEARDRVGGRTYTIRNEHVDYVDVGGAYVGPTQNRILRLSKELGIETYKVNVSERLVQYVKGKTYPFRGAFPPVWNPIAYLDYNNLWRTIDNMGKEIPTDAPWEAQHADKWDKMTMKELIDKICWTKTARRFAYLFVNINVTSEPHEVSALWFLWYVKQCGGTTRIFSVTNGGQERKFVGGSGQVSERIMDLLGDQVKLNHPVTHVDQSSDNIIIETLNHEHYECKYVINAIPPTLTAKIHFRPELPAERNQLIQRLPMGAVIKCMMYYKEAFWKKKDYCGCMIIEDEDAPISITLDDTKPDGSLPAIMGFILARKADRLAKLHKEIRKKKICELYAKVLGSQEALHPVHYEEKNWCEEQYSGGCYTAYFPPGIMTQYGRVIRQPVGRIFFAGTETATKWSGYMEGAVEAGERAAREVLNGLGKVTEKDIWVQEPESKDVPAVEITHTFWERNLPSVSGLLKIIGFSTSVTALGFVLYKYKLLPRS
Description: Mao-A activity was measured using a commercial assay kit according to the manufacturer’s instructions. Mao-A (0.837 μM) was incubated with vehicle (1 % DMSO), Clorgyline (50 μM), or various concentrations (1, 5, or 25 μM) of EN460, I2, I26, or I29 for 10 min. Mao-A catalyzes the oxidative deamination of p-tyramine, generating H2O2, which was quantified fluorimetrically (λex= 530; λem= 585 nm). Mao-A activity is presented as a percentage of the vehicle control.

MDAMB231 cells = experiment: MTS assay of metabolic activity in MDAMB231 cells; format: cell-based, human; settings: MDAMB231, dose-response, 24 h, 1 % FBS
Description: Six thousand cells (MDAMB231 and E0771) per well were seeded in 96-well plates and cultured in medium containing 1 % FBS. Cells were treated with varying concentrations of compounds and, after 24 h, incubated with MTS [3-(4,5-dimethylthiazol-2-yl)-5-(3-carboxymethoxyphenyl)-2-(4 sulfophenyl)2Htetrazolium]and PMS (phenazine methosulfate), following the instructions of the CellTiter 96® Aqueous Non-Radioactive Cell Proliferation Assay (Promega). Measurements were performed using a TECAN Infinite M200 plate reader with […] at 490 nm.

E0771 tumors = system: E0771 tumors; design: method as in PMID 35853086, PMID 36063727, PMID 33531624, PMID 39962052; settings: previous studies; cited from earlier work
recombinant PDI = recombinant PDI (Homo sapiens, UniProt P07237); experiment: PDI activity assay (insulin transhydrogenase / insulin turbidity assay); format: biochemical; settings: 25 μM, 15 min incubation
Chain of recombinant PDI (P07237 18-508, species assumed): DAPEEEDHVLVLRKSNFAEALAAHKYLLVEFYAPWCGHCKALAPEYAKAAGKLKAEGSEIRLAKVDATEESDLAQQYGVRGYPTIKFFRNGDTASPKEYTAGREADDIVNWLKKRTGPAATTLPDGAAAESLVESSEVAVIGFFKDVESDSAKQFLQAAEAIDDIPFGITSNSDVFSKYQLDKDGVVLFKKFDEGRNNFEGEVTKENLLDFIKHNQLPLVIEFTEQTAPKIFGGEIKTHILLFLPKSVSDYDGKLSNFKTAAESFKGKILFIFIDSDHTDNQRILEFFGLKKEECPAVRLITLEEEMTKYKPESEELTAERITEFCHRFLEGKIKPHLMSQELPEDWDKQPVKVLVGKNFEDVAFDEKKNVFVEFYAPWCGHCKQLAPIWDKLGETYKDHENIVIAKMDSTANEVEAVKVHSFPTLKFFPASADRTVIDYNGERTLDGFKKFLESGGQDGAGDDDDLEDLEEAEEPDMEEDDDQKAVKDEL
Description: PDI activity was assessed using an insulin transhydrogenase assay. Bovine insulin (1 mg/mL) in sodium phosphate buffer, pH 7.0, containing 2 mM EDTA, was incubated with 1.4 μM recombinant PDI in the presence of vehicle (1 % DMSO) or various concentrations of isoquercetin (30 or 60 μM), EN460, I2, I26, or I29 (1, 5, or 25 μM) for 15 min. The turbidimetric assay of insulin disulfide reduction by PDI was initiated by adding 1 mM dithiothreitol, and the reaction was monitored at 650 nm for 80 min. PDI activity is presented as a percentage of the vehicle control.

recombinant ERO1A [3] = target: T1, recombinant ERO1A; experiment: AUR-based kinetic assay of ERO1A activity (recombinant ERO1A and PDIA1, HRP, Amplex Ultra Red); format: biochemical; settings: for IC50: Table 1 in Fig. 3
Description: A GST-SMT3-mouse ERO1A (residues 43–464) and His-tagged PDIA1 [30] were expressed in the Rosetta DE3 bacteria (Novagen) and purified as described in [29, 31]. The GST-SMT3 and His tags were cleaved using Ulp protease (Z03691, GenScript) and thrombin protease (T6884, Merck), respectively. Successful tag removal was confirmed by a shift to a lower molecular weight for ERO1A on SDS-PAGE and by the absence of signal in anti-His immunoblotting for PDIA1.
The kinetic assay of ERO1A activity is based on a reaction involving recombinant ERO1A and PDIA1 proteins, horseradish peroxidase (Worthington), and 5 μM Amplex Ultra Red, as detailed in [29]. The effect of ERO1A inhibitors was evaluated by preincubating the compounds with ERO1A and measuring the inhibition of the linear reaction rate, and the corresponding IC50 values were determined using Prism 10 (GraphPad).
EN460 and 16 newly synthesized derivatives (I24–I40) (except for I31, which was not evaluated due to potential toxicity associated with its CN group) were evaluated for their ability to inhibit ERO1-dependent AUR fluorescence using a kinetic assay with recombinant ERO1 and PDIA1, as previously described (Figs. 3A and 3B). Raw kinetic data showing AUR fluorescence over time in reactions containing reduced ERO1, PDIA1 and EN460-derivatives are presented in Fig. Sup.1 A and Sup. 1B. Reaction rates, measured in presence or absence of varying concentrations of each compound, were used to calculate IC50 values, defined as the concentration required to inhibit 50 % of ERO1 enzymatic activity (Figs. 3C, 3D and Fig. Sup1C).

[4] = target: T3, ERO1 in MDA-MB-231 breast cancer cells (Homo sapiens, UniProt Q96HE7); experiment: ERO1 redox state by non-reducing immunoblot in MDA-MB-231 cells; format: cell-based; settings: MDA-MB-231, 1–100 μM, in physiological solution or dissolved in DMSO, Fig. 4B
T3 construct: Non-reducing Immunoblot of endogenous ERO1 in lysates of vehicle-treated MDAMB231; endogenous in cells; host or cells: MDA-MB-231
T3 sequence (Q96HE7 24-468): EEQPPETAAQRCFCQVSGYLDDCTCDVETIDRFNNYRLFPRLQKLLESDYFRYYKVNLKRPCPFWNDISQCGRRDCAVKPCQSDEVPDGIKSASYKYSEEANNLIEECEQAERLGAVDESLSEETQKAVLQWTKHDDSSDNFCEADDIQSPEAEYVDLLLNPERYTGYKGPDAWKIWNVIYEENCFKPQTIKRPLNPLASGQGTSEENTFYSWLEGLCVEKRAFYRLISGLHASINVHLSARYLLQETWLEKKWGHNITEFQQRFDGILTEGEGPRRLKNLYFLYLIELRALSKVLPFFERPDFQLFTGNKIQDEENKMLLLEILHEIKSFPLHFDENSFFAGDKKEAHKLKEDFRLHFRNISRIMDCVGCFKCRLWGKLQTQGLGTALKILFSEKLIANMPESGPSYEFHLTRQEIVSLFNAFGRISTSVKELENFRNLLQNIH
Description: MDAMB231 and E0771 cells were maintained in Dulbecco’s Modified Eagle’s Medium supplemented with 1 % fetal bovine serum and seeded at 70 % confluency in six-well plates one day prior to the experiment. Cells were treated with DTT (10 mM) and/or ERO1A inhibitors for 1–5 h. At the time of collection, phosphate-buffered saline containing 10 mM NEM was added, and cells were incubated on ice for 10 min in lysis buffer (50 mM Tris-HCl, pH 7.4; 150 mM NaCl; 1 % Triton X-100; 0.1 % SDS; 1 % sodium deoxycholate; protease inhibitors; and 10 mM NEM). Protein concentrations were determined using the BCA assay, and equal amounts of protein were separated by non-reducing SDS-PAGE followed by immunoblotting with a polyclonal antibody against ERO1A [33].

[5] = logarithm of IC50 in μM, compounds dissolved in DMSO, read-out: Log IC50 (confidence intervals) (converted)
[6] = compounds dissolved in DMSO, preincubated with ERO1A, NA stands for not active, read-out: IC50

| SMILES | IC50 (recombinant ERO1A [3]; [5]) | ERO1 inhibitory activity (in words) (recombinant ERO1A [3]; compounds dissolved in DMSO) | IC50 (recombinant ERO1A [3]; [6]) | ERO1 inhibitory activity (in words) (recombinant ERO1A [1]) | further results |
| --- | --- | --- | --- | --- | --- |
| O=C1/C(=C/c2ccc(-c3ccccc3)o2)C(C(F)(F)F)=NN1c1ccc(Cl)cc1 [I1] | – | – | – | inactive | – |
| O=C1/C(=C/c2ccc(-c3ccccc3)o2)C(C(F)(F)F)=NN1c1ccc(Cl)cc1Cl [I2] | – | – | – | retained activity | Mao-A activity (percentage of the vehicle control) [2]: inhibited Mao-A activity; metabolic activity (MTS assay) (MDAMB231 cells): significantly reduced metabolic activity; VEGFA levels (E0771 tumors): reduced VEGFA levels; PDI activity (percentage of the vehicle control) (recombinant PDI): inhibited PDI activity; IC50 (recombinant ERO1A [1]): 8 µM |
| O=C(O)c1cccc(N2N=C(C(F)(F)F)/C(=C\c3ccc(-c4ccccc4)o3)C2=O)c1 [I3] | – | – | – | retained activity | IC50 (recombinant ERO1A [1]): 3.5 µM |
| COC(=O)c1cc(N2N=C(C(F)(F)F)/C(=C\c3ccc(-c4ccccc4)o3)C2=O)ccc1Cl [I6] | – | – | – | Inactive | – |
| O=C(O)c1cc(N2N=C(c3ccccc3)/C(=C\c3ccc(-c4ccccc4)o3)C2=O)ccc1Cl [I10] | – | – | – | abolished the activity | – |
| CC1=NN(c2ccc(Cl)c(C(=O)O)c2)C(=O)/C1=C/c1ccc(-c2ccccc2)o1 [I14] | – | – | – | abolished the activity | – |
| O=C1/C(=C/c2ccc(-c3ccccc3)o2)C(C(F)(F)F)=NN1c1cccc2ccccc12 [I24] | 8.51 µM | – | – | – | – |
| Cc1ccccc1N1N=C(C(F)(F)F)/C(=C\c2ccc(-c3ccccc3)o2)C1=O [I25] | 17.8 µM | lowest potency | 17.7 µM | – | – |
| Cc1cccc(C)c1N1N=C(C(F)(F)F)/C(=C\c2ccc(-c3ccccc3)o2)C1=O [I26] | 6.46 µM | – | – | – | Mao-A activity (percentage of the vehicle control) [2]: inhibited Mao-A activity; PDI activity (percentage of the vehicle control) (recombinant PDI): inhibited PDI activity |
| COc1ccccc1N1N=C(C(F)(F)F)/C(=C\c2ccc(-c3ccccc3)o2)C1=O [I27] | 8.51 µM | – | – | – | – |
| O=C1/C(=C/c2ccc(-c3ccccc3)o2)C(C(F)(F)F)=NN1c1ccccc1Cl [I28] | 4.79 µM | – | – | – | – |
| O=C1/C(=C/c2ccc(-c3ccccc3)o2)C(C(F)(F)F)=NN1c1cccnc1 [I32] | 19.1 µM | – | 19.1 µM | – | – |
| O=C(O)c1cc(N2N=C(C(F)(F)F)/C(=C\c3ccc(-c4cccc(F)c4)o3)C2=O)ccc1Cl [I36] | – | did not significantly affect inhibitory activity compared to EN460; also recorded: maintained the potency | – | – | – |
| O=C(O)c1cc(N2N=C(C(F)(F)F)/C(=C\c3ccc(-c4cccc(C(F)(F)F)c4)o3)C2=O)ccc1Cl [I37] | 5.62 µM | did not significantly affect inhibitory activity compared to EN460; also recorded: maintained the potency | – | – | – |

Second part, led by results:

| IC50 (recombinant ERO1A [3]; [5]) | ERO1 inhibitory activity (in words) (recombinant ERO1A [3]; compounds dissolved in DMSO) | IC50 (recombinant ERO1A [3]; [6]) | SMILES | ERO1 inhibitory activity (in words) (recombinant ERO1A [1]) | further results |
| --- | --- | --- | --- | --- | --- |
| 10.7 µM | – | 10.7 µM | O=C1/C(=C/c2ccc(-c3ccccc3)o2)C(C(F)(F)F)=NN1c1cc(F)ccc1F [I30] | – | – |
| – | retained activity | 5.6 µM | O=C1/C(=C/c2ccc(-c3ccccc3)o2)C(C(F)(F)F)=NN1c1cccc(S(=O)(=O)O)c1 [I34] | – | ERO1 reduction / activity in cells [4]: failed to reduce ERO1A; also recorded: completely inactive in cells; ERO1 reduction / activity in cells ([4]; listed as I34(DMSO)): inactive in cells; metabolic activity (MTS assay) (MDAMB231 cells): inactive; IC50 / potency relative to EN460 (recombinant ERO1A [3]; compared with EN460): comparable to EN460; ERO1 inhibitory activity (in words) (recombinant ERO1A [3]; compound in aqueous solution (physiological solution)): completely inactive |
| – | loss of activity | – | O=C(O)c1cc(N2N=C(C(F)(F)F)/C(=C\c3ccc(-c4ccc(F)cc4)o3)C2=O)ccc1Cl [I38] | – | – |
| – | loss of activity | 10.5 µM | COc1cccc(-c2ccc(/C=C3/C(=O)N(c4ccc(Cl)c(C(=O)O)c4)N=C3C(F)(F)F)o2)c1 [I39] | – | – |
| – | reduced activity | 12 µM | O=C(O)c1cc(N2N=C(C(F)(F)F)/C(=C\c3ccc(-c4ccccc4)s3)C2=O)ccc1Cl [I40] | – | – |
